Assay results taken from patent publication US8569378B2, “p27 protein inducer” (Chugai Seiyaku Kabushiki Kaisha, priority 2007, dated 2013).

How the values were obtained:
p27 protein [1] = test: Quantification of p27 protein by ELISA (p27 protein-inducing activity, EC50); format: cell-based, human; details: NCI-H460 cells, 48 hours, p27 sandwich ELISA; Table 1-2
Method: The p27 protein-inducing activities of the compounds or salts listed in Tables 1-1, 1-2 and 2 below were measured as follows.
(§1) Preparation of Cell Lysate:
NCI-H460 human non-small cell lung cancer cells (ATCC HTB-177) were plated in 6-well plates at 2×10^5 cells/well and incubated overnight. Then, the test substance was added to the medium to a final concentration of 10000 nmol/L, 3000 nmol/L, 100 nmol/L, 30 nmol/L, 10 nmol/L, 3 nmol/L, 1 nmol/L, 0.3 nmol/L, 0.1 nmol/L, 0.03 nmol/L or 0.01 nmol/L and the cells were incubated at 37° C. in 5% CO2 for 48 hours. 150 μL of Cell Lysis Buffer (catalog no. 9803, Cell Signaling) which had been diluted to 1-fold concentration (1 mM PMSF was added immediately before use) was added, and the mixture was allowed to stand on ice for 10 minutes. The Cell Lysis Buffer in which cells were lysed was collected together with cells with a scraper and transferred to a new tube. It was centrifuged at 15000 rpm for 10 minutes at 4° C. and the supernatant was then transferred to a new tube.
Quantification by Sandwich ELISA:
Anti-p27 monoclonal antibody (catalog no. 71-9600, Zymed) was diluted to 5 μg/mL in 50 mM carbonate coating buffer (0.4 g/L NaCO3, 0.73 g/L NaHCO3 and 0.04 g/L NaN3 in distilled water), and it was then added at 50 μL/well and allowed to stand overnight at 4° C. to bind the antibody. After washing three times with PBS, 200 μL of blocking solution (0.2% I-Block in PBS) was added to each well. After 1 hour of incubation at room temperature, washing with PBS-T (0.05% Tween 20 in PBS) was performed three times. The sample and recombinant p27 protein standard were serially diluted in Cell Lysis Buffer (catalog no. 9803, Cell Signaling) which had been diluted to 1-fold concentration (1 mM PMSF was added immediately before use), and it was then added at 100 μL/well. After 1 hour of incubation at room temperature, washing with 200 μL of PBS-T was performed three times. HRP-labeled anti-p27 antibody (product no. 610243, BD Transdution Laboratories) was diluted 1:2500 (i.e. to 0.1 μg/mL) in 0.2% I-Block/0.05% PBS-T, and it was then added at 100 μL/well. After 1 hour of incubation at room temperature, washing with 200 μL of PBS-T was performed three times. Chromogenic substrate solution (TMB One Solution, catalog no. G7431, Promega) was added at 100 μL/well and allowed to develop a color reaction at room temperature. After stopping the reaction with 50 μL of 1N H2SO4, the absorbance at 450 nm was measured.
Calculation of EC50 Values:
A standard response curve was generated by plotting the amount of p27 protein against the concentration of the test substance. The basal level of response was defined as 0%, while the plateau level where the induction of p27 protein had been maximized was defined as 100%. Finally, the test substance concentration at which 50% induction was achieved was calculated, and it was defined as EC50.

p27 protein [2] = test: Detection of p27 protein by Western blotting in NCI-H460 cell lysate; format: cell-based, human; details: NCI-H460 cells; 0.3-30 μmol/L; KIP-10 48 hours, KIP-12 24 hours; FIGS. 1 and 3
Method: (§2) The p27 protein-inducing activities of KIP-10 (the compound represented by formula (C)) and KIP-12 (the compound represented by formula (D)) were measured as follows.
as §1
(§3) NCI-H460 human non-small cell lung cancer cells (ATCC HTB-177), DU-145 human prostate cancer cells (ATCC HTB-81) or HCT116 human colon cancer cells (ATCC CCL-247) were plated in 6-well plates at 2×10^5 cells/well and incubated overnight. Then, the test substance was added to the medium to a final concentration of 0.3 μmol/L, 1 μmol/L, 3 μmol/L, 10 μmol/L or 30 μmol/L or was not added and the cells were incubated at 37° C. in 5% CO2 for 48 or 24 hours. The cells were washed with cold PBS(−), which was then completely removed. 0.35 mL of Cell Lysis Buffer (catalog no. 9803, Cell Signaling) which had been diluted to 1-fold concentration was added, and the mixture was allowed to stand on ice for 10 minutes. The Cell Lysis Buffer in which cells were lysed was collected together with cells and subjected to sonication (speed 1, duty 80) for 10 seconds. […]
(§4) The total protein concentration in the supernatant was determined with a DC Protein Kit (catalog no. 500-0122, Bio-Rad). […] After washing three times with TBS-T, it was immersed in ECL kit reagent (catalog no. RPN2132, Amersham) for 1 minute and the band was detected with a chemiluminescence reader. […]

p27 protein [3] = test: Detection of p27 protein by Western blotting in DU-145 cell lysate; format: cell-based; details: DU-145 human prostate cancer cells; 0.3-30 μmol/L; 48 hours; FIG. 2
Method: as §2, §1, §3, §4

p27 protein [4] = test: Detection of p27 protein by Western blotting in HCT116 cell lysate; format: cell-based; details: HCT116 human colon cancer cells; 0.3-30 μmol/L; 24 hours; FIG. 4
Method: as §2, §1, §3, §4

SMILES | EC50 (p27 protein [1]) [µM] | p27 protein-inducing activity (Western blotting) (p27 protein [2]) | p27 protein-inducing activity (Western blotting) (p27 protein [3]) | p27 protein-inducing activity (Western blotting) (p27 protein [4])
Cc1c(Cc2ccccc2N)c(=O)oc2cc(OC(=O)N(C)C)c(Cl)cc12 [KIP-10, dimethylcarbamic acid 3-(2-aminobenzyl)-6-chloro-4-methyl-2-oxo-2H-1-benzopyran-7-yl ester] | 6 | sufficiently high p27 protein-inducing activity | sufficiently high p27 protein-inducing activity | –
Cc1nn(Cc2ccc(C(=O)Nc3nc4ccccc4s3)cc2)c(C)c1[N+](=O)[O-] [KIP-12] | – | sufficiently high p27 protein-inducing activity | – | sufficiently high p27 protein-inducing activity
